Laboratory results from BindingDB's records for doi:10.7270/Q29K48M5 (University of Pittsburgh, 2007).

Target: T1, M-phase inducer phosphatase 2 (Homo sapiens, UniProt P30305)
T1 sequence (P30305 whole entry): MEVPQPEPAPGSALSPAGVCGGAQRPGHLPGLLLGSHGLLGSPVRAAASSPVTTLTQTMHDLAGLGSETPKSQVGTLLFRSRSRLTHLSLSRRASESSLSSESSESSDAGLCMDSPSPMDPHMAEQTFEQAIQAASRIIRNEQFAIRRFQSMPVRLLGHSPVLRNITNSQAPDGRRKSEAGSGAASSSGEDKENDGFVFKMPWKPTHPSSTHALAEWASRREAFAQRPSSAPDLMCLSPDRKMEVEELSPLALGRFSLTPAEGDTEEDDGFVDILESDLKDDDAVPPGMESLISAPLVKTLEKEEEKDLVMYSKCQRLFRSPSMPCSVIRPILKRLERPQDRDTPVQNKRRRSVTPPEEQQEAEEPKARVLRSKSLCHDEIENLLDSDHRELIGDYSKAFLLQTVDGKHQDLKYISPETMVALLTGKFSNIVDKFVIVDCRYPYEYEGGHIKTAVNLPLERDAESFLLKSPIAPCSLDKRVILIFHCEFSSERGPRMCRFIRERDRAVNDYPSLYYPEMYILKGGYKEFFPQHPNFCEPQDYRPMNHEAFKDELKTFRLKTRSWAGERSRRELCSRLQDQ
Assay: Cdc25B catalytic domain phosphatase inhibitors, dose response, biochemical, 25 mM DTT, probe assessment (AID 649)

| Structure (SMILES) | IC50 |
| --- | --- |
| O=C(Nc1ccc2nc(-c3ccco3)c(-c3ccco3)nc2c1)N1CCCCCC1 | 39.8 µM |
| Cc1ccc2c(c1C)NC(C(=O)O)C1CC=CC21 (stereo not drawn) | 17.7 µM |
| O=C(O)C1Nc2c(O)cccc2C2C=CCC12 (stereo not drawn) | 12.8 µM |
| Cn1ncnc2c(=O)n(C)c(=O)nc1-2 | 34.5 µM |
| [O-]/[N+](=C\c1ccncc1)c1ccccc1 | > 50 µM |
| COc1cccc2c(C)c(C(=O)O)[nH]c12 | 10.9 µM |
| O=C1C=Cc2ccccc2C1=O [1,2-dihydronaphthalene-1,2-dione] | > 50 µM |
| CCn1nc(-c2ccccc2)nc2c(=O)n(C)c(=O)nc1-2 [1-Ethyl-6-methyl-3-phenyl-1H-pyrimido[5,4-e][1,2,4]triazine-5,7-dione] | 21.1 µM |
| [O-]/[N+](=C\c1ccc(OC(F)F)cc1)c1ccccc1 [1-[4-(difluoromethoxy)phenyl]-N-phenylmethanimine oxide] | > 50 µM |
| CCn1nc(-c2cccs2)nc2c(=O)n(C)c(=O)nc1-2 [1-ethyl-6-methyl-3-thiophen-2-yl-pyrimido[5,4-e][1,2,4]triazine-5,7-dione] | 17.2 µM |
| O=C1Cc2ccccc2C(=O)N1CCc1ccccc1 [2-(2-phenylethyl)-4H-isoquinoline-1,3-dione] | > 50 µM |
| N#Cc1c(N)sc(=S)c2c1CCN(Cc1ccccc1)C2 [3-Amino-7-benzyl-1-thioxo-5,6,7,8-tetrahydro-1H-thiopyrano[3,4-c]pyridine-4-carbonitrile] | 49.3 µM |
| Cc1ccccc1Nc1cc2ccccc2c(O)n1 [3-[(2-methylphenyl)amino]-2H-isoquinolin-1-one] | 42.3 µM |
| COc1ccc(Br)cc1C=c1sc2nc(-c3ccco3)nn2c1=O [5-[(5-bromanyl-2-methoxy-phenyl)methylidene]-2-(furan-2-yl)-[1,3]thiazolo[3,2-b][1,2,4]triazol-6-one] | 14.7 µM |
| CC(=O)Nc1cc(OC(C)=O)c2nonc2c1OC(C)=O [Acetic acid 7-acetoxy-5-acetylamino-benzo[1,2,5]oxadiazol-4-yl ester] | > 50 µM |
| CCOC(=O)C(C(=O)OCC)c1cc(Br)c2noc3c2c1C(=O)c1ccccc1-3 [MLS000038842] | > 50 µM |
| Oc1nc(Nc2ccccc2)cc2ccccc12 [MLS000043701] | 48 µM |
| O=C1C=Cc2ccccc2/C1=C/NC12CN3CCN(CN(C3)C1)C2 [MLS000071484] | > 50 µM |
| Cc1c(N=c2c(=O)c3ccccc3c2=O)c(=O)n(-c2ccccc2)n1C [MLS000105950] | > 50 µM |
| CCOc1ccc2noc3c2c1C(=O)c1ccccc1-3 [MLS000106837] | > 50 µM |
| COc1ccc2noc3c2c1C(=O)c1ccccc1-3 [MLS000106874] | > 50 µM |
| c1ccc(CSc2nnc(-c3ccco3)c(-c3ccco3)n2)cc1 [MLS-0029114.0001] | > 50 µM |
| Cc1ccc2c(c1)C1C=CCC1C(C(=O)O)N2 (stereo not drawn) [MLS-0067149.0001] | 11.4 µM |
| O=C(NC1(O)C(=O)c2ccccc2C1=O)c1ccccc1 [N-(2-hydroxy-1,3-dioxo-2-indenyl)benzamide] | > 50 µM |
| COc1cccc2c1NC(C(=O)O)C1CC=CC21 (stereo not drawn) [SMR000009698] | 11.7 µM |
| O=C(OC1CCCCC1)c1ccc2c(c1)C1C=CCC1C(C(=O)O)N2 (stereo not drawn) [SMR000019385] | 7.42 µM |
| N#Cc1c(N2CCCC2)nc(N)c2c(N)nc(N3CCCC3)cc12 [SMR000061605] | > 50 µM |
| Nc1cccc2cnccc12 [isoquinolin-5-amine] | > 50 µM |
